# Measured values: patent publication US8999957B2, “Heterocyclic compounds as ERK inhibitors” (Merck Sharp & Dohme Corp., priority 2010, dated 2015)
# Where “and” joins values, the source holds several entries; their conditions need not be identical. Equal values may be shown once.
# Target: fully phosphorylated, mouse aERK2 enzyme (Mus musculus (Mouse), UniProt P63085)
# Assay: Active ERK2 (aERK) IMAP-FP assay, condition 2
# Assay type: biochemical
# Settings: aERK assay condition 2, 30 uM ATP; read-out: aERK IC50
# Method: Active ERK2 (aERK) Assay: (Unless Indicated Otherwise, the Data Provided for aERK was obtained using Condition 1)
# Activated ERK2 activity was determined in an IMAP-FP assay (Molecular Devices). […] Phosphorylation reactions were allowed to proceed for 40-45 minutes and were immediately quenched by the addition of 60 μL IMAP detection beads (1:1000 dilutions) in IMAP binding buffer. Plates were read on EnVision reader after 30 minutes binding equilibration.
# fully phosphorylated, mouse aERK2 enzyme, sequence (P63085 whole entry): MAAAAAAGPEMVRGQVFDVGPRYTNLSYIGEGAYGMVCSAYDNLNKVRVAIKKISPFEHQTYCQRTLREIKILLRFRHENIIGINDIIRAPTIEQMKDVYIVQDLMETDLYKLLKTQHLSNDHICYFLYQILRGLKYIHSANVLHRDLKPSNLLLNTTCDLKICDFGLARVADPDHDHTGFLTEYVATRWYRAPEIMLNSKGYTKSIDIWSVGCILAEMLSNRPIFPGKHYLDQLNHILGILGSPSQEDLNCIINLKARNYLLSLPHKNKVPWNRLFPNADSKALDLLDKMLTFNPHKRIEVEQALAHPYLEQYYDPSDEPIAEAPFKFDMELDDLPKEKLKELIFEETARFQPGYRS
row,SMILES,IC50 [nM]
1,"CN(C)C(=O)C(c1c(F)cccc1F)N1CCC[C@@H](NC(=O)c2ccc3[nH]nc(-c4ccncc4)c3c2)C1 (single isomer, unassigned) [drawing 508, N-((R)-1-((S or R)-1-(2,6-difluorophenyl)-2-(dimethyl-amino)-2-oxoethyl)piperidin-3-yl)-3-(pyridin-4-yl)-1H-indazole-5-carboxamide]",115
2,"COc1cccc(F)c1CN1CCC[C@@H](NC(=O)c2ccc3[nH]nc(C4=CCS(=O)(=O)CC4)c3c2)C1 [3-(1,1-dioxido-3,6-dihydro-2H-thiopyran-4-yl)-N-[(3R)-1-(2-fluoro-6-methoxy-benzyl)piperidin-3-yl]-1H-indazole-5-carboxamide]",8.4
3,"COc1cccc(F)c1CN1CCC[C@@H](NC(=O)c2ccc3[nH]nc(C4=CCOCC4)c3c2)C1 [3-(3,6-dihydro-2H-pyran-4-yl)-N-[(3R)-1-(2-fluoro-6-methoxy-benzyl)piperidin-3-yl]-1H-indazole-5-carboxamide]",1.3
4,"COC(=O)[C@@H](c1c(F)cccc1F)N1CCC[C@@H](NC(=O)c2ccc3[nH]nc(-c4ccncc4)c3c2)C1 [(R)-methyl 2-(2,6-difluorophenyl)-2-((R)-3-(3-(pyridin-4-yl)-1H-indazole-5-carboxamido)piperidin-1-yl)acetate]",2200
5,COc1cccc(F)c1CN1CCC[C@@H](NC(=O)c2ccc3[nH]nc(C4CCOCC4)c3c2)C1 [N-[(3R)-1-(2-fluoro-6-methoxybenzyl)piperidin-3-yl]-3-(tetrahydro-2H-pyran-4-yl)-1H-indazole-5-carboxamide],195

# Same assay, conditions: active ERK2; read-out: aErk2 Ic50
row,SMILES,IC50
1,"COc1cccc(F)c1CN1C[C@@H](NC(=O)c2ccc3[nH]nc(-c4ccnc(C)c4)c3c2)CC[C@@H]1C(=O)N1CC(O[Si](C)(C)C(C)(C)C)CO1 (stereo in doubt) [N-[(3S,6R)-6-[(4-{[tert-butyl(dimethyl)silyl]oxy}isoxazolidin-2-yl)carbonyl]-1-(2-fluoro-6-methoxybenzyl)-piperidin-3-yl]-3-(2-methylpyridin-4-yl)-1H-indazole-5-carboxamide]",72.5 nM and 144 nM
2,"COc1cccc(F)c1CN1C[C@H](NC(=O)c2ccc3[nH]nc(-c4ccnc(C)c4)c3c2)CC[C@H]1C(=O)N1CCN(C(=O)OC2(C)CC2)CC1 [1-methylcyclopropyl 4-{[(2S,5R)-1-(2-fluoro-6-methoxybenzyl)-5-({[3-(2-methylpyridin-4-yl)-1H-indazol-5-yl]carbonyl}amino)piperidin-2-yl]carbonyl}piperazine-1-carboxylate]",22.1 nM
3,"COc1cccc(F)c1CN1C[C@H](NC(=O)c2ccc3[nH]nc(-c4ccnc(C)c4)c3c2)CC[C@H]1C(=O)N1CCN(C(=O)OC(C)C)CC1 [1-methylethyl 4-{[(2S,5R)-1-(2-fluoro-6-methoxybenzyl)-5-({[3-(2-methylpyridin-4-yl)-1H-indazol-5-yl]carbonyl}amino)piperidin-2-yl]carbonyl}piperazine-1-carboxylate]",19.1 nM
4,"Cc1cc(-c2n[nH]c3ccc(C(=O)N[C@@H]4CC[C@@H](C(=O)Nc5nccs5)N(CCc5ccccc5)C4)cc23)ccn1 [3-(2-methylpyridin-4-yl)-N-[(3R,6S)-1-(2-phenylethyl)-6-(1,3-thiazol-2-ylcarbamoyl)-piperidin-3-yl)-1H-indazole-5-carboxamide]",133 nM
5,"Cc1cc(-c2n[nH]c3ccc(C(=O)N[C@@H]4CC[C@@H](C(=O)N(C)C)N(Cc5c(F)cccc5F)C4)cc23)ccn1 [N-[(3R,6S)-1-(2,6-difluorobenzyl)-6-(dimethylcarbamoyl)piperidin-3-yl]-3-(2-methylpyridin-4-yl)-1H-indazole-5-carboxamide]",74 nM
6,"COc1cccc(F)c1CN1C[C@H](NC(=O)c2ccc3[nH]nc(-c4ccnc(C)c4)c3c2)CC[C@H]1C(=O)N1CCCCO1 [N-[(3R,6S)-1-(2-fluoro-6-methoxybenzyl)-6-(1,2-oxazinan-2-ylcarbonyl)piperidin-3-yl]-3-(2-methylpyridin-4-yl)-1H-indazole-5-carboxamide]",9.6 nM
